Assay results: ChEMBL document CHEMBL5042500 (J Med Chem, 2022)
pIC50: −log10 of the molar value. In brackets after ≈: the same amount, converted by molar mass. Activity calls are given as the source filed them. The rule behind the calls is not given here.

How the values were obtained:
[1] = Solubility of the compound in FeSSIF at pH 5.0; type: physicochemical
Cytochrome P450 3A4 [2] = molecular target: T1, Cytochrome P450 3A4 (Homo sapiens, UniProt P08684); test: Inhibition of CYP3A4 in human liver microsomes using testosterone as substrate incubated for 30 mins by LC-MS/MS analysis; type: ADME
[3] = Metabolic stability in CD1 mouse liver microsomes assessed as compound degradation in presence of NADPH measured after 20 mins; type: ADME, Microsome; conditions: read-out: Drug degradation
[4] = molecular target: T2, Serine/threonine-protein kinase Sgk1 (Homo sapiens, UniProt O00141); test: Inhibition of recombinant human SGK1 expressed in baculovirus expression system using 5-carboxyfluorescein -RPRAATF-NH2 as substrate preincubated for 30 mins followed by substrate addition in presence of 10 uM ATP and measured after 60 mins by microfluidics assay
T2 sequence (O00141 whole entry): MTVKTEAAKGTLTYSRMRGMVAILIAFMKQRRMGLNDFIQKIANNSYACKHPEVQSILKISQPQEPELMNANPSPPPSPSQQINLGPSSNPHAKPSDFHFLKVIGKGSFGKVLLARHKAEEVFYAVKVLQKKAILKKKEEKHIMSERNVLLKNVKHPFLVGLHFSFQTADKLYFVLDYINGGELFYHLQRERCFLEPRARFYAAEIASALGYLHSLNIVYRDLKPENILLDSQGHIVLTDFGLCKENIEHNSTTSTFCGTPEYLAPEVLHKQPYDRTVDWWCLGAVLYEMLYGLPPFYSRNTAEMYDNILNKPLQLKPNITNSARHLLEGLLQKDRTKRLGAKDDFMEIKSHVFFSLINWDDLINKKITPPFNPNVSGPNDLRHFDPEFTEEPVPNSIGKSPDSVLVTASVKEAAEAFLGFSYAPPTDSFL

[5] = molecular target: T2, Serine/threonine-protein kinase Sgk1; test: Inhibition of recombinant human SGK1 expressed in baculovirus expression system using 5-carboxyfluorescein -RPRAATF-NH2 as substrate preincubated for 30 mins followed by substrate addition in presence of 500 uM ATP and measured after 60 mins by microfluidics assay
[6] = Distribution coefficient, logD of compound at pH 7.4 by chromatographic analysis; type: physicochemical; conditions: octanol/water
[7] = Aqueous solubility of the compound at pH 7.4; type: physicochemical
[8] = Effect on chondrocyte hypertrophic differentiation mouse ATDC-5 cells assessed as inhibition of […] gene expression incubated for 2 weeks followed by compound added and every 3 days medium is changed measured after 2 weeks by RT-qPCR analysis; type: functional, cell-based
[9] = Permeability in human Caco2 cells at 20 uM incubated for 120 mins by ESI-MS/MS analysis; type: ADME, cell-based; conditions: Caco-2, read-out: permeability
[10] = Chemical stability of the compound at pH 7.4 measured after 24 hrs; type: physicochemical; conditions: buffer, read-out: Stability
[11] = Metabolic stability in human liver microsomes assessed as compound degradation in presence of NADPH measured after 20 mins; type: ADME, Microsome; conditions: read-out: Drug degradation
[12] = Metabolic stability in Sprague-Dawley rat liver microsomes assessed as compound degradation in presence of NADPH measured after 20 mins; type: ADME, Microsome; conditions: read-out: Drug degradation
[13] = Intrinsic clearance in human hepatocytes assessed per 10^-6 cells; type: ADME, cell-based, Hepatocyte
Cytochrome P450 3A4 [14] = molecular target: T1, Cytochrome P450 3A4; test: Inhibition of CYP3A4 in human liver microsomes using midazolam as substrate incubated for 10 mins by LC-MS/MS analysis; type: ADME
CYP3A4 = CYP3A4 (Homo sapiens, UniProt P08684); test: Inhibition of CYP3A4 in human liver microsomes by measuring maximum efficacy; type: ADME
hERG (KCNH2) [15] = molecular target: T3, hERG (KCNH2) (Homo sapiens, UniProt Q12809); test: Inhibition of human ERG at 1 uM relative to control; type: toxicity
hERG (KCNH2) [16] = molecular target: T3, hERG (KCNH2); test: Inhibition of human ERG at 10 uM; type: toxicity
Salmonella typhimurium [17] = test: Mutagenicity in Salmonella typhimurium […] in presence of S9 fraction by ames test; type: toxicity, organism-based; conditions: salmonella enterica subsp. enterica serovar typhimurium
Salmonella typhimurium [18] = test: Mutagenicity in Salmonella typhimurium […] by ames test; type: toxicity, organism-based; conditions: salmonella enterica subsp. enterica serovar typhimurium
[19] = molecular target: Ribosomal protein S6 kinase alpha-1 (Homo sapiens) (UniProt Q15418); test: Inhibition of RSK1 kinase (unknown origin) at 0.1 uM
[20] = molecular target: T4, Serine/threonine-protein kinase Sgk1 (Mus musculus, UniProt Q9WVC6); test: Inhibition of mouse SGK1 in presence 500 uM presence of ATP
T4 sequence (Q9WVC6 whole entry): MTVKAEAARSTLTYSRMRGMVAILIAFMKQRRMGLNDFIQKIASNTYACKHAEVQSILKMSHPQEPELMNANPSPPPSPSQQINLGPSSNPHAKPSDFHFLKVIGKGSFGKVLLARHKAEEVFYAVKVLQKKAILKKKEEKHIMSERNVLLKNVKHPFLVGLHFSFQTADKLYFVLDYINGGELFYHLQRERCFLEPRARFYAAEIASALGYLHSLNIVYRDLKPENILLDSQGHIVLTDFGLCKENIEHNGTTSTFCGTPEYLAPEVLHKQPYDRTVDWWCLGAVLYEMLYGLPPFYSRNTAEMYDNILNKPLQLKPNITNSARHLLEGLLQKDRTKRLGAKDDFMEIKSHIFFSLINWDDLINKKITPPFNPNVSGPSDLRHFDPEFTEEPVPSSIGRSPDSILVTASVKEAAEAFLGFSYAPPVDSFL

[21] = Inhibition of rat SGK1 in presence 500 uM presence of ATP
Femur [22] = test: (§1) Induction of chondrogenesis in femoral head cartilage isolated from C57BL/6 mouse model of osteoarthritis assessed as reduction in intensity of collagen type x staining incubated for 2 weeks in hypertrophic condition and twice for week medium is changed by immunohistochemical staining based analysis; type: functional, tissue-based
Femur [23] = test: as §1, with “x staining at 2 uM incubated for” for “x staining incubated for”; type: functional, tissue-based
Femur [24] = test: as §1, with “x staining at 10 uM incubated for” for “x staining incubated for”; type: functional, tissue-based

T1 sequence (P08684 whole entry): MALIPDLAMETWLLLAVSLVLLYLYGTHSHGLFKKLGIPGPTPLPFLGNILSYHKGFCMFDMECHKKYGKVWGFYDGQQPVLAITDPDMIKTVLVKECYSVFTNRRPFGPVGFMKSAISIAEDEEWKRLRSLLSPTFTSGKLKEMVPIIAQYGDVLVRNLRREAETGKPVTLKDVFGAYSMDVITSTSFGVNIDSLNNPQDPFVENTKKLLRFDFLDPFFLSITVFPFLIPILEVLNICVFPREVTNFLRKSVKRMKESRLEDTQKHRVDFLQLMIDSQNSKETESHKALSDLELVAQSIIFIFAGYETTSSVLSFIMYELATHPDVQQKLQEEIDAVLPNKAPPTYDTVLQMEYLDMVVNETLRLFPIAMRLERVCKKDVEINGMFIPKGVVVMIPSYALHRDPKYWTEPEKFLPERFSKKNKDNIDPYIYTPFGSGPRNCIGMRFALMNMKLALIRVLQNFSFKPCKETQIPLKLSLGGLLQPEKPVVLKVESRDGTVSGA
T3 sequence (Q12809 whole entry): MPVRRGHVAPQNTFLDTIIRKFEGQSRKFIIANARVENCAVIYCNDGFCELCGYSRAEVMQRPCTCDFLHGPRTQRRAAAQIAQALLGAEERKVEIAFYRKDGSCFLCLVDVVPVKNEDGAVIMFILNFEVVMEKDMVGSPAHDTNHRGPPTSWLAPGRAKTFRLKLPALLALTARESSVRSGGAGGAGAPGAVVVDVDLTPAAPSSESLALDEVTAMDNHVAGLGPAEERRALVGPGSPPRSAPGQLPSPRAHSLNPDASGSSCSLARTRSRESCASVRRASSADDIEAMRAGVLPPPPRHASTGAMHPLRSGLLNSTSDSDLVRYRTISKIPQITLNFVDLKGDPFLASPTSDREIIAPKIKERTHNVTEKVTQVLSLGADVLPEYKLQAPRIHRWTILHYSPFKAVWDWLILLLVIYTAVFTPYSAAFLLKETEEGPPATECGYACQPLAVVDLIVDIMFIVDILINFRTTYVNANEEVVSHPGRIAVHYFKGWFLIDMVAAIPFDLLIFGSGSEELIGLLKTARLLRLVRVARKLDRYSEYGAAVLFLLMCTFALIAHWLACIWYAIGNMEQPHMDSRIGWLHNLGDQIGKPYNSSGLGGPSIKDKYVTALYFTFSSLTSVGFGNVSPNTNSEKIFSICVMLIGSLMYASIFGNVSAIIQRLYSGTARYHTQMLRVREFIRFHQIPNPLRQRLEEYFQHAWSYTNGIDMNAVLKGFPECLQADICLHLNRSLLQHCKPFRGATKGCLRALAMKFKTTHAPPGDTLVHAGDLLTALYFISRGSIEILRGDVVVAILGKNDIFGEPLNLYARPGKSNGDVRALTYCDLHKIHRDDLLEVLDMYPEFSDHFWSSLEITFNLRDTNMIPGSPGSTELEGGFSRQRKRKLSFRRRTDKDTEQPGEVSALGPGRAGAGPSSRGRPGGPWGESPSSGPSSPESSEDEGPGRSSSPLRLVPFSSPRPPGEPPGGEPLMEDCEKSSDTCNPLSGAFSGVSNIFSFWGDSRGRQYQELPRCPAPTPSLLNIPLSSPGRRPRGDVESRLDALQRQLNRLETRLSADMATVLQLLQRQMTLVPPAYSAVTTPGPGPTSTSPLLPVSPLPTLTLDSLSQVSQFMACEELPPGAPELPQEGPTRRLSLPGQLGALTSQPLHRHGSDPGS
CYP3A4, sequence (P08684 whole entry): as the sequence (P08684 whole entry) above
Ribosomal protein S6 kinase alpha-1 (Homo sapiens), sequence (Q15418 whole entry): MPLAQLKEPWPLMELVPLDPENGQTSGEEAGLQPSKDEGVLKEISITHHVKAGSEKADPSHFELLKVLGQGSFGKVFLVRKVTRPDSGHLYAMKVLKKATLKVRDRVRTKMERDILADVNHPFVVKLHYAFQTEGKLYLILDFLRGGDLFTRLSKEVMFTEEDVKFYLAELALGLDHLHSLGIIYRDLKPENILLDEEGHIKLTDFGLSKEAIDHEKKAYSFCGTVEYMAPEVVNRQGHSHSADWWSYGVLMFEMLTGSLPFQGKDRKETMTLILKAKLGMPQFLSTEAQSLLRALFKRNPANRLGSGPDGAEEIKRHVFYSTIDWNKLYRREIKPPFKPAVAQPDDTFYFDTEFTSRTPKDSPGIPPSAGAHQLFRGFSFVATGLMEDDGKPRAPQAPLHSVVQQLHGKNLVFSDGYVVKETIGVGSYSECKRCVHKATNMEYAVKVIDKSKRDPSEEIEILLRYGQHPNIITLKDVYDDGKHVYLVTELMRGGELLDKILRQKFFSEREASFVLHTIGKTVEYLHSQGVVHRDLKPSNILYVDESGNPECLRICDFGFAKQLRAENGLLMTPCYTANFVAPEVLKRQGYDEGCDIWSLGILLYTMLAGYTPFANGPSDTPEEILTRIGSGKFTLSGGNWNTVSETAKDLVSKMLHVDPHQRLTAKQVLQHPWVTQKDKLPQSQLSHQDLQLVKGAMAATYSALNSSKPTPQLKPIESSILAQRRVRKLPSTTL

pIC50 (Cytochrome P450 3A4 [2]) | metabolised at 20 min [3] | chromatographic logD [6] | solubility [7] | Papp at 2 h, 20 µM [9] | remaining at 24 h [10] | metabolised at 20 min [11] | metabolised at 20 min [12] | pIC50 (Cytochrome P450 3A4 [14]) | Emax (CYP3A4) | Compound | pIC50 [8] | inhibition at 1 µM (hERG (KCNH2) [15]) | inhibition at 10 µM (hERG (KCNH2) [16]) | Activity (Salmonella typhimurium [17]) | Activity (Salmonella typhimurium [18]) | further results
< 4.52 | 11% | 3.4 | < 1 µg/mL | 5 ×10⁻⁶ cm/s | 100% | 19% | 4% | < 4.52 | 3% | Cc1n[nH]c2nc(-c3ccc(NS(=O)(=O)c4cc(Cl)ccc4F)cc3)nc(OC3CCN(C4CC4)CC3)c12 | 8.15 | 24% | 5% | Non-Toxic | Non-Toxic | solubility [1]: 17 µg/mL (≈ 30.5 µM); pIC50 [4]: 8.70; pIC50 [5]: 8.40; CLH [13]: 0.02 mL/h
< 5.52 | 6% | 2.8 | 4 µg/mL (≈ 7.72 µM) | 8.6 ×10⁻⁶ cm/s | 100% | 13% | 7% | < 5.52 | 13% | O=S(=O)(Nc1ccc(-c2nc(O[C@H]3CC[C@H](O)CC3)c3cn[nH]c3n2)cc1)c1cc(Cl)ccc1F | 7.30 | 0% | 65% | Non-Toxic | Non-Toxic | inhibition [19]: 57%; pIC50 [20]: 6.60; pIC50 [21]: 6.45; Activity (Femur [22]): Active; Activity (Femur [23]): inactive; Activity (Femur [24]): Active
